Laboratory results reported in ChEMBL document CHEMBL5338750, “Design of Sonosensitizers Integrated with Resveratrol Motif for Synergetic Sonodynamic Therapy and Nuclear Factor Kappa B Transcription Suppression of Breast Cancer” (J Med Chem, 2023).
pEC50, pIC50: −log10 of the molar value. Activity calls are given as the source filed them. The rule behind the calls is not given here.

Tests used:
MCF7 [1] = experiment: Cytotoxicity against human MCF7 cells assessed as inhibition of cell growth preincubated for 72 hrs followed by ultrasonic sound treatment for 30 sec by MTT assay; type: functional, cell-based; details: for Activity: time 259230.0 sec
MCF7 [2] = experiment: Sono-cytotoxicity against human MCF7 cells assessed as inhibition of cell growth preincubated for 4 hrs followed by ultrasonic sound treatment for 2 mins by MTT assay; type: functional, cell-based
MCF7 [3] = experiment: Induction of ROS generation in human MCF7 cells assessed as increase in red fluorescence incubated for 4 hrs by Hoechst 33342 staining based confocal microscopic analysis; type: functional, cell-based
[4] = molecular target: Nuclear factor NF-kappa-B complex (Homo sapiens) (UniProt Q00653+P19838+Q04206); experiment: Inhibition of H2O2-induced NFkappaB activation in human MCF7 cells at 1 uM measured for 12 hrs by ELISA analysis; type: cell-based
[5] = Inhibition of LPS-stimulated NO production in mouse RAW264.7 cells at 10 uM incubated for 24 hrs by Griess reagent based microplate reader analysis relative to control; type: functional
MCF7 [6] = experiment: Cytotoxicity against human MCF7 cells assessed as inhibition of cell growth incubated for 72 hrs by MTT assay; type: functional, cell-based; details: MCF7, 72 h
MCF7 [7] = experiment: Induction of apoptosis in human MCF7 cells assessed as early apoptotic cells preincubated for 4 hrs followed by ultrasonic sound treatment for 30 sec and measured after 24 hrs by Annexin V-FITC/propidium iodide double staining based flow cytometry analysis (reference value: 1.83 %); type: functional; details: 28 h
MCF7 [8] = experiment: Induction of apoptosis in human MCF7 cells assessed as necrotic cells preincubated for 4 hrs followed by ultrasonic sound treatment for 30 sec and measured after 24 hrs by Annexin V-FITC/propidium iodide double staining based flow cytometry analysis (reference value: 1.05%); type: functional; details: 28 h
[9] = Inhibition of LPS-stimulated NO production in mouse RAW264.7 cells incubated for 24 hrs by Griess reagent based microplate reader analysis; type: functional, cell-based; details: RAW264.7, 24 h
MCF7 [10] = experiment: Cytotoxicity against human MCF7 cells assessed as inhibition of cell growth more than 1 uM measured for 72 hrs by MTT assay; type: functional, cell-based
MCF7 [11] = experiment: Induction of apoptosis in human MCF7 cells at 10 uM incubated for 24 hrs by Annexin V-FITC/propidium iodide double staining based flow cytometry analysis; type: functional, cell-based
MCF7 [12] = experiment: Induction of ROS generation in human MCF7 cells assessed as increase in ROS level preincubated for 4 hrs followed by ultrasonic sound treatment for 30 sec by DCFH-DA dye based flow cytometry analysis (Rvb= 3.5%); type: functional; details: time 14430 sec; 4.008 h
MCF7 [13] = experiment: Induction of apoptosis in human MCF7 cells assessed as late apoptotic cells preincubated for 4 hrs followed by ultrasonic sound treatment for 30 sec and measured after 24 hrs by Annexin V-FITC/propidium iodide double staining based flow cytometry analysis (reference value: 0 %); type: functional; details: 28 h
MCF7 [14] = experiment: Induction of ROS generation in human MCF7 cells assessed as increase in ROS level incubated for 4 hrs by DCFH-DA dye based flow cytometry analysis (Rvb=2.9%); type: functional
MCF7 [15] = experiment: Sono-cytotoxicity against human MCF7 cells assessed as inhibition of cell growth preincubated for 4 hrs followed by ultrasonic sound treatment for 30 sec by MTT assay; type: functional, cell-based
MCF7 [16] = experiment: Sono-cytotoxicity against human MCF7 cells assessed as inhibition of cell growth preincubated for 4 hrs followed by ultrasonic sound treatment for 5 mins by MTT assay; type: functional, cell-based
MCF7 [17] = experiment: Induction of ROS generation in human MCF7 cells assessed as […] preincubated for 4 hrs followed by ultrasonic sound treatment for 30 sec by DCFH-DA dye based inverted microscopy; type: functional, cell-based; details: time 14430.0 sec
MCF7 [18] = experiment: Induction of apoptosis in human MCF7 cells assessed as viable cells preincubated for 4 hrs followed by ultrasonic sound treatment for 30 sec and measured after 24 hrs by Annexin V-FITC/propidium iodide double staining based flow cytometry analysis (reference value: […]); type: functional; details: 28 h
[19] = Induction of hyperthermia in solvent assessed as increase in temperature at 10 uM treated with ultrasonic sound for 2 mins and measured after 5 mins; details: time 7.0 min
MCF7 [20] = experiment: Effect of p38 protein level in human MCF7 cells at 10 uM measured for 24 hrs by ELISA analysis; type: functional, cell-based
[21] = Toxicity in BALB/c mouse xenografted with human MCF7 cells assessed as kidney damage at 1.2 mg/kg, iv administered for 10 days followed by ultrasonic sound treatment for 2 to 6 hrs and measured immediately by Hand E staining based analysis; type: organism-based; details: in vivo, time 242-246 hrs
[22] = Toxicity in BALB/c mouse xenografted with human MCF7 cells assessed as heart damage at 1.2 mg/kg, iv administered for 10 days followed by ultrasonic sound treatment for 2 to 6 hrs and measured immediately by Hand E staining based analysis; type: organism-based; details: in vivo, time 242-246 hrs
[23] = Toxicity in BALB/c mouse xenografted with human MCF7 cells assessed as drug tolerance at 1.5 mg/kg, iv administered for 10 days followed by ultrasonic sound treatment for 2 to 6 hrs and measured immediately; type: organism-based; details: in vivo, time 242-246 hrs
[24] = Drug uptake in BALB/c mouse tumor xenografted with human MCF7 cells assessed as accumulation of red fluorescence at 1.5 mg/kg, iv measured at 6 hrs by fluorescence imaging analysis; type: ADME, organism-based, Neoplasm; details: in vivo
[25] = Toxicity in BALB/c mouse xenografted with human MCF7 cells assessed as liver damage at 1.2 mg/kg, iv administered for 10 days followed by ultrasonic sound treatment for 2 to 6 hrs and measured immediately by Hand E staining based analysis; type: organism-based; details: in vivo, time 242-246 hrs
[26] = Toxicity in BALB/c mouse xenografted with human MCF7 cells assessed as lung damage at 1.2 mg/kg, iv administered for 10 days followed by ultrasonic sound treatment for 2 to 6 hrs and measured immediately by Hand E staining based analysis; type: organism-based; details: in vivo, time 242-246 hrs
[27] = Toxicity in BALB/c mouse xenografted with human MCF7 cells assessed as lung damage at 1.2 mg/kg, iv administered for 10 days and measured immediately by Hand E staining based analysis; type: organism-based; details: in vivo, 240 h, time 10 day
Mus musculus = experiment: Induction of hyperthermia in BALB/c mouse xenografted with human MCF7 cells assessed as burning of skin at 1.2 mg/kg, iv administered for 10 days followed by ultrasonic sound treatment for 2 to 6 hrs and measured immediately; type: functional, organism-based; details: time 242-246 hrs
[28] = Toxicity in BALB/c mouse xenografted with human MCF7 cells assessed as spleen damage at 1.2 mg/kg, iv administered for 10 days followed by ultrasonic sound treatment for 2 to 6 hrs and measured immediately by Hand E staining based analysis; type: organism-based; details: in vivo, time 242-246 hrs
MCF7 [29] = experiment: Effect of IL-6 protein level in human MCF7 cells at 10 uM measured for 24 hrs by ELISA analysis; type: functional, cell-based
[30] = Downregulation of IL-6 expression level in serum of BALB/c mouse at 1.5 mg/kg, iv measured at 12 to 24 hrs; type: functional; details: time 12-24 hrs
MCF7 [31] = experiment: Antitumor activity against human MCF7 cells xenografted in BALB/c mouse assessed as tumor growth inhibition at 1.5 mg/kg, iv administered for 10 days followed by ultrasonic sound treatment for 2 to 6 hrs and measured immediately; type: functional; details: time 242-246 hrs, read-out: TGI
[32] = Toxicity in BALB/c mouse xenografted with human MCF7 cells assessed as decrease in body weight at 1.5 mg/kg, iv administered for 10 days followed by ultrasonic sound treatment for 2 to 6 hrs and measured immediately; type: organism-based; details: in vivo, time 242-246 hrs
[33] = Toxicity in BALB/c mouse xenografted with human MCF7 cells assessed as kidney damage at 1.2 mg/kg, iv administered for 10 days and measured immediately by Hand E staining based analysis; type: organism-based; details: in vivo, 240 h, time 10 day
[34] = Drug uptake in BALB/c mouse limb xenografted with human MCF7 cells assessed as accumulation of red fluorescence at 1.5 mg/kg, iv measured at 6 hrs by fluorescence imaging analysis; type: ADME, organism-based; details: in vivo
[35] = Toxicity in BALB/c mouse xenografted with human MCF7 cells assessed as spleen damage at 1.2 mg/kg, iv administered for 10 days and measured immediately by Hand E staining based analysis; type: organism-based; details: in vivo, 240 h, time 10 day
[36] = Toxicity in BALB/c mouse xenografted with human MCF7 cells assessed as liver damage at 1.2 mg/kg, iv administered for 10 days and measured immediately by Hand E staining based analysis; type: organism-based; details: in vivo, 240 h, time 10 day
[37] = Drug uptake in BALB/c mouse skin xenografted with human MCF7 cells assessed as accumulation of red fluorescence at 1.5 mg/kg, iv measured at 6 hrs by fluorescence imaging analysis; type: ADME, organism-based, Skin of body; details: in vivo
[38] = Toxicity in BALB/c mouse xenografted with human MCF7 cells assessed as heart damage at 1.2 mg/kg, iv administered for 10 days and measured immediately by Hand E staining based analysis; type: organism-based; details: in vivo, 240 h, time 10 day
MCF7 [39] = experiment: Effect of TNF-alpha protein level in human MCF7 cells at 10 uM measured for 24 hrs by ELISA analysis; type: functional, cell-based

Sequence of Nuclear factor NF-kappa-B complex (Homo sapiens) (P19838 whole entry, looked up): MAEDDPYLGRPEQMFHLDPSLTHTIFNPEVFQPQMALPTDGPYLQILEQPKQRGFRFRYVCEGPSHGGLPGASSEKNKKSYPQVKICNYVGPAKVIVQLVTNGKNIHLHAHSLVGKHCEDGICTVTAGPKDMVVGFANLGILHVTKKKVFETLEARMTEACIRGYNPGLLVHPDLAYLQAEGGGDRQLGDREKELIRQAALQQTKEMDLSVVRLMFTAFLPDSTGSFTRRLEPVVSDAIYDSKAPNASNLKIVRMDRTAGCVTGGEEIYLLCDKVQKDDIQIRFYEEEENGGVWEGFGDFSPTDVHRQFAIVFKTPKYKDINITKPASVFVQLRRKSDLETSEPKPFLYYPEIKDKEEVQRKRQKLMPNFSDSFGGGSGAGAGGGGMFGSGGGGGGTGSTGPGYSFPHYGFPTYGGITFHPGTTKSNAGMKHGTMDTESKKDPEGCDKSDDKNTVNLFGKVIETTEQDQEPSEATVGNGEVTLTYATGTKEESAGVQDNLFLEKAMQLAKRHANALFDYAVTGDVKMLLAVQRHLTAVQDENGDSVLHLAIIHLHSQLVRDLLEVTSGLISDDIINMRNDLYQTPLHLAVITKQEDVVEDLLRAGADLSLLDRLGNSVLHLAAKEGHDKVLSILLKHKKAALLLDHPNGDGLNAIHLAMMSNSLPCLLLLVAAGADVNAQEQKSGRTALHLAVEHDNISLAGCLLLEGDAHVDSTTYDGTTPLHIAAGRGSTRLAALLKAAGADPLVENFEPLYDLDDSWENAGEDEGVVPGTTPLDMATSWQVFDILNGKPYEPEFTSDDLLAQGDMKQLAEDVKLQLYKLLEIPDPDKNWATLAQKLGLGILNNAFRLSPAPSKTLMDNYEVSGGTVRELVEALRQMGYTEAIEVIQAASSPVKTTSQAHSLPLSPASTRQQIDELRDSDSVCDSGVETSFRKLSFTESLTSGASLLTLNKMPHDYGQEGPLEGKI
Sequence of Nuclear factor NF-kappa-B complex (Homo sapiens) (Q00653 whole entry, looked up): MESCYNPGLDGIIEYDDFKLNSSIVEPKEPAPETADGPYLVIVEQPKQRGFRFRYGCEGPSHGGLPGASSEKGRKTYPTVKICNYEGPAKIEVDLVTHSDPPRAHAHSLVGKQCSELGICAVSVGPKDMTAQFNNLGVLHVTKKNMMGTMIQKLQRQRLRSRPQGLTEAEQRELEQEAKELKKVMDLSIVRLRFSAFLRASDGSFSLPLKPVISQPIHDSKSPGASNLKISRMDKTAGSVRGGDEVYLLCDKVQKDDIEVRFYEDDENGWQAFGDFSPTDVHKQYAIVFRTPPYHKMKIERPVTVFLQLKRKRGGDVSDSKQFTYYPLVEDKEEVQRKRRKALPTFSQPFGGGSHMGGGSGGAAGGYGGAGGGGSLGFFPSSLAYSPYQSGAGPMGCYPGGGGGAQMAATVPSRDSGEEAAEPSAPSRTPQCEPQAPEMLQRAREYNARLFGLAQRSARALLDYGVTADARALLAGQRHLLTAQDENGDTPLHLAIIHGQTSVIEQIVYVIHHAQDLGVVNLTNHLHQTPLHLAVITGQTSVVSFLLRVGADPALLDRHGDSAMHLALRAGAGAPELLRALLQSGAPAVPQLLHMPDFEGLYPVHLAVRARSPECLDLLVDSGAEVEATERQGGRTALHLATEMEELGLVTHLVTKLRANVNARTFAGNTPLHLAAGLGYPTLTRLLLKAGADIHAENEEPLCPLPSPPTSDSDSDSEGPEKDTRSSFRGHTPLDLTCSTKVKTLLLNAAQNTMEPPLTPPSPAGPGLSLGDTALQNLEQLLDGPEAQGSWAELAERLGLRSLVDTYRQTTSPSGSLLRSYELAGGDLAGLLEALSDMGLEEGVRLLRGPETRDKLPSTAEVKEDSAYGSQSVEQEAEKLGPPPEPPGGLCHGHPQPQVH
Sequence of Nuclear factor NF-kappa-B complex (Homo sapiens) (Q04206 whole entry, looked up): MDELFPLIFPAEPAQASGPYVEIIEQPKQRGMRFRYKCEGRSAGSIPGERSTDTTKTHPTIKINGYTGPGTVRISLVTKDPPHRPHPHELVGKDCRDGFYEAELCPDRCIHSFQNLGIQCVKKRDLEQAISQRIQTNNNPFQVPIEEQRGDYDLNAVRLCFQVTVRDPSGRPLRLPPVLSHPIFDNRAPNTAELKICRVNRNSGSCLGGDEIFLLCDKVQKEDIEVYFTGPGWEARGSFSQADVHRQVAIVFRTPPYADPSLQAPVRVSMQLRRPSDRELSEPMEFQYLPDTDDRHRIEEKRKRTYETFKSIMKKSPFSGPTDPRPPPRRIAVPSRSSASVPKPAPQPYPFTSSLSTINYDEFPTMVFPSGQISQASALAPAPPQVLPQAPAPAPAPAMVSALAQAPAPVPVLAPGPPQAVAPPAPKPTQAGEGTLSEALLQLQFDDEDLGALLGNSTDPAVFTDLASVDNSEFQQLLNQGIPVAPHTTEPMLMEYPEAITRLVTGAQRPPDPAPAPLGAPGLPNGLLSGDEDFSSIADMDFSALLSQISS

SMILES: COc1cc(/C=C/C(=O)CC(=O)/C=C/c2ccc(O)c(OC)c2)ccc1O
- Activity (MCF7 [1]): Active

SMILES: COc1cc(/C=C/c2ccc(N(c3ccc(Br)cc3)c3ccc(-c4ccc(-c5cccs5)c5nsnc45)cc3)cc2)cc(OC)c1
- pIC50 (MCF7 [2]): 5.70
- Activity (MCF7 [3]): Active
- inhibition [4]: Active
- inhibition at 10 µM [5]: 48%
- pIC50 (MCF7 [6]): 5.04
- Activity (MCF7 [7]): 87.5%
- Activity (MCF7 [8]): 4.37%
- pEC50 [9]: 7.14
- Activity (MCF7 [10]): Active
- Activity (MCF7 [11]): inactive
- Activity (MCF7 [12]): 48.1%
- Activity (MCF7 [13]): 1.74%
- Activity (MCF7 [14]): 4.5%
- pIC50 (MCF7 [15]): 5.38
- pIC50 (MCF7 [16]): 5.92
- Activity (MCF7 [17]): inactive
- Activity (MCF7 [18]): 56.4%
- T [19]: 3.4 °C

SMILES: COc1cc(/C=C/c2ccc(N(c3ccc(/C=C/c4cc(OC)cc(OC)c4)cc3)c3ccc(-c4ccc(-c5ccc(N(c6ccc(/C=C/c7cc(OC)cc(OC)c7)cc6)c6ccc(/C=C/c7cc(OC)cc(OC)c7)cc6)cc5)c5nsnc45)cc3)cc2)cc(OC)c1
- pIC50 (MCF7 [2]): 6.08
- Activity (MCF7 [3]): Active
- inhibition [4]: Active
- inhibition at 10 µM [5]: 72%
- pIC50 (MCF7 [1]): 5.46
- pIC50 (MCF7 [6]): 5.44
- Activity (MCF7 [7]): 28.7%
- Activity (MCF7 [8]): 2.33%
- pEC50 [9]: 6.66
- Activity (MCF7 [10]): Active
- Activity (MCF7 [11]): inactive
- Activity (MCF7 [12]): 97.5%
- Activity (MCF7 [13]): 3.59%
- Activity (MCF7 [14]): 5.8%
- pIC50 (MCF7 [15]): 5.46
- pIC50 (MCF7 [16]): 6.21
- Activity (MCF7 [17]): inactive
- Activity (MCF7 [18]): 35.4%
- T [19]: 5.9 °C

SMILES: COc1cc(/C=C/c2ccc(N(c3ccccc3)c3ccc(-c4ccc(-c5ccc(N(c6ccccc6)c6ccc(/C=C/c7cc(OC)cc(OC)c7)cc6)cc5)c5nsnc45)cc3)cc2)cc(OC)c1
- Activity (MCF7 [20]): Active
- Activity [21]: Non-Toxic
- pIC50 (MCF7 [2]): 6.26
- Activity [22]: Non-Toxic
- Activity (MCF7 [3]): Active
- Activity [23]: Non-Toxic
- Drug uptake [24]: Active
- inhibition [4]: Active
- inhibition at 10 µM [5]: 76%
- pIC50 (MCF7 [1]): 5.80
- pIC50 (MCF7 [6]): 5.62
- Activity (MCF7 [7]): 70%
- Activity [25]: Non-Toxic
- Activity (MCF7 [8]): 0.045%
- Activity [26]: Non-Toxic
- Activity [27]: Non-Toxic
- pEC50 [9]: 7.16
- Activity (MCF7 [10]): Active
- Activity (MCF7 [11]): inactive
- Activity (MCF7 [12]): 92.8%
- Activity (Mus musculus): Active
- Activity (MCF7 [13]): 0.29%
- Activity (MCF7 [14]): 12.4%
- Activity [28]: Non-Toxic
- Activity (MCF7 [29]): Active
- Activity [30]: 42%
- inhibition in vivo at 1.5 mg/kg (MCF7 [31]): 70%
- Activity [32]: Non-Toxic
- pIC50 (MCF7 [15]): 5.80
- Activity [33]: Non-Toxic
- pIC50 (MCF7 [16]): 6.54
- Drug uptake [34]: Active
- Activity (MCF7 [17]): inactive
- Activity [35]: Non-Toxic
- Activity (MCF7 [18]): 29.7%
- Activity [36]: Non-Toxic
- Drug uptake [37]: Active
- Activity [38]: Non-Toxic
- T [19]: 3.9 °C
- Activity (MCF7 [39]): Active

SMILES: C=CC1=C(C)c2cc3[nH]c(cc4nc(cc5[nH]c(cc1n2)c(C)c5CCC(=O)O)C(CCC(=O)O)=C4C)c(C)c3C=C
- Activity (MCF7 [1]): Active
